Experimental data published in US8143290B2, “Chemical compounds 572” (AstraZeneca AB, priority 2006, dated 2012).

Target: T1, recombinant human GR (Homo sapiens, UniProt P04150)
T1 construct: purchased Panvera/Invitrogen P2812 (kit P2893)
T1 sequence (P04150 1-777): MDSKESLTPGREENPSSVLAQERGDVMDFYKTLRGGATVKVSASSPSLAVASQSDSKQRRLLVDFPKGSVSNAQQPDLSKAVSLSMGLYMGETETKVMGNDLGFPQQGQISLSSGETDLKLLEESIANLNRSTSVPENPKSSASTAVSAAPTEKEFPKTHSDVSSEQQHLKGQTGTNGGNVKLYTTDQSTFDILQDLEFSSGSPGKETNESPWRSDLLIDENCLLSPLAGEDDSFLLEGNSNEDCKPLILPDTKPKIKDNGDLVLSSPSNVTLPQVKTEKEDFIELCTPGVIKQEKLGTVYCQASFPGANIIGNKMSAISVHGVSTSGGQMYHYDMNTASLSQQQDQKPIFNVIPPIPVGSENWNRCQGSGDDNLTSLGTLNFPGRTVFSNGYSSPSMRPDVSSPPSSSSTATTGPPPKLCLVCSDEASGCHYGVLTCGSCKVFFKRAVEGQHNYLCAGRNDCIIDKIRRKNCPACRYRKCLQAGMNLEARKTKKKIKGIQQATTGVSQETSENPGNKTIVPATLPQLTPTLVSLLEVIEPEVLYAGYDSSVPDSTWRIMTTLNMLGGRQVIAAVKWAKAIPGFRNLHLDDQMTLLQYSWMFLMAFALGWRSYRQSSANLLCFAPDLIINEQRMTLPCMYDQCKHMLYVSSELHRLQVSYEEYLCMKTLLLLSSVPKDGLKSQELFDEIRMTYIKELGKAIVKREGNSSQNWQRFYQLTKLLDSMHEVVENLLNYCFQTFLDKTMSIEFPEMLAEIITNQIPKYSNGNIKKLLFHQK
Experiment: Human Glucocorticoid Receptor (GR) Assay, fluorescence polarization
Format: binding
Settings: GS Red tracer, incubated 2 h at r.t., XLfit model 205, read-out: GRhuFL_FP_v2 Mean IC50
How it was run: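 Fluorescence polarization kit assay: recombinant GR and GS Red fluorescent ligand with Stabilizing Peptide and DTT in potassium phosphate/sodium molybdate/EDTA screening buffer. Plates incubated 2 h in the dark at r.t.; DMSO served as 0% and dexamethasone as 100% control.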

Compound	IC50
COc1ccccc1[C@@H](Oc1ccc2c(cnn2-c2ccc(F)cc2)c1)[C@H](C)NC(=O)C(F)(F)F [Example 164, 2,2,2-trifluoro-N-[(1R,2S)-1-[1-(4-fluorophenyl)indazol-5-yl]oxy-1-(2-methoxyphenyl)propan-2-yl]acetamide]	4.2 nM
Cc1ccc([C@@H](Oc2ccc3c(cnn3-c3ccc(F)cc3)c2)[C@H](C)NC(=O)C2(C)CC2)cc1C [Example 211, N-[(1R,2S)-1-(3,4-dimethylphenyl)-1-[1-(4-fluorophenyl)indazol-5-yl]oxy-propan-2-yl]-1-methyl-cyclopropane-1-carboxamide]	3 nM
C[C@H](NC(=O)C(F)(F)F)[C@H](Oc1ccc2c(cnn2-c2ccc(Cl)nn2)c1)c1ccccc1 [Example 119, N-{2-[1-(6-Chloro-pyridazin-3-yl)-1H-indazol-5-yloxy]-1-methyl-2-phenyl-ethyl}-2,2,2-trifluoro-acetamide]	3.1 nM
COc1cccc([C@@H](Oc2ccc3c(cnn3-c3ccc(F)cc3)c2)[C@H](C)NC(=O)C2CCCC2)c1 [Example 56, N-[(1R,2S)-1-[1-(4-fluorophenyl)indazol-5-yl]oxy-1-(3-methoxyphenyl)propan-2-yl]cyclopentanecarboxamide]	4.4 nM
C[C@H](NC(=O)C(F)(F)F)[C@H](Oc1ccc2c(cnn2-c2ccc(CN(C)C)cc2)c1)c1ccccc1 [Example 143, N-((1R,2S)-1-(1-(4-((dimethylamino)methyl)phenyl)-1H-indazol-5-yloxy)-1-phenylpropan-2-yl)-2,2,2-trifluoroacetamide]	23 nM
COc1ccc([C@@H](Oc2ccc3c(cnn3-c3ccc(F)cc3)c2)[C@H](C)NC(=O)C(C)(F)F)cc1F [Example 231, 2,2-difluoro-N-[(1R,2S)-1-(3-fluoro-4-methoxy-phenyl)-1-[1-(4-fluorophenyl)indazol-5-yl]oxy-propan-2-yl]propanamide]	5.1 nM
Cc1c(F)cccc1[C@@H](Oc1ccc2c(cnn2-c2ccc(F)cc2)c1)[C@H](C)NC(=O)C(F)(F)F [Example 167, 2,2,2-trifluoro-N-[(1R,2S)-1-(3-fluoro-2-methyl-phenyl)-1-[1-(4-fluorophenyl)indazol-5-yl]oxy-propan-2-yl]acetamide]	8.6 nM
Cc1ccc(F)cc1[C@@H](Oc1ccc2c(cnn2-c2ccc(F)cc2)c1)[C@H](C)NC(=O)C1(C)CC1 [Example 220, N-[(1R,2S)-1-(5-fluoro-2-methyl-phenyl)-1-[1-(4-fluorophenyl)indazol-5-yl]oxy-propan-2-yl]-1-methyl-cyclopropane-1-carboxamide]	4.2 nM
CC(=O)N[C@@H](C)[C@H](Oc1cc2cnn(-c3ccc(F)cc3)c2cc1Cl)c1ccc(F)cc1 (single isomer, unassigned) [Example 101, N-[(1S*,2R*)-1-[6-chloro-1-(4-fluorophenyl)indazol-5-yl]oxy-1-(4-fluorophenyl)propan-2-yl]acetamide]	15 nM
C[C@H](NC(=O)C(F)F)[C@H](Oc1ccc2c(cnn2-c2ccc(F)cc2)c1)c1ccccc1 [Example 44, 2,2-Difluoro-N-[(1R,2S)-1-[1-(4-fluorophenyl)indazol-5-yl]oxy-1-phenyl-propan-2-yl]acetamide]	2.7 nM
COCC(=O)N[C@@H](C)[C@H](Oc1ccc2c(cnn2-c2ccc(F)cc2)c1)c1cc(C)ccc1C [Example 260, N-[(1R,2S)-1-(2,5-dimethylphenyl)-1-[1-(4-fluorophenyl)indazol-5-yl]oxy-propan-2-yl]-2-methoxy-acetamide]	14 nM
Cc1cccc([C@@H](Oc2ccc3c(cnn3-c3ccc(F)cc3)c2)[C@H](C)NC(=O)C(C)(C)C)c1 [Example 185, N-[(1R,2S)-1-[1-(4-fluorophenyl)indazol-5-yl]oxy-1-(3-methylphenyl)propan-2-yl]-2,2-dimethyl-propanamide]	5.5 nM
C[C@H](NC(=O)C(F)Cl)[C@H](Oc1ccc2c(cnn2-c2ccc(F)cc2)c1)c1ccccc1 (stereo partly drawn) [Example 47, 2-Chloro-2-fluoro-N-[(1R,2S)-1-[1-(4-fluorophenyl)indazol-5-yl]oxy-1-phenyl-propan-2-yl]acetamide]	2.5 nM
CC(C)C[C@H](NC(=O)C(F)(F)F)[C@H](Oc1ccc2c(cnn2-c2ccc(F)cc2)c1)c1cccc(F)c1 [Example 110, 2,2,2-Trifluoro-N-{(1S)-1-[(R)-(3-Fluorophenyl)-{[1-(4-fluorophenyl)-1H-indazole-5-yl]oxy}methyl}-3-methylbutyl}-acetamide]	29 nM
C[C@H](NC(=O)C(C)(F)F)[C@H](Oc1ccc2c(cnn2-c2ccc(F)cc2)c1)c1ccc(Cl)cc1 [Example 237, N-[(1R,2S)-1-(4-chlorophenyl)-1-[1-(4-fluorophenyl)indazol-5-yl]oxy-propan-2-yl]-2,2-difluoro-propanamide]	8.4 nM
C[C@H](NC(=O)CCCN)[C@H](Oc1ccc2c(cnn2-c2ccc(F)cc2)c1)c1ccccc1 [Example 28, 4-Amino-N-[(1R,2S)-1-[1-(4-fluorophenyl)indazol-5-yl]oxy-1-phenyl-propan-2-yl]butanamide]	25 nM
COCC(=O)N[C@@H](C)[C@H](Oc1ccc2c(cnn2-c2ccc(F)cc2)c1)c1cccc(F)c1 [Example 263, N-[(1R,2S)-1-(3-fluorophenyl)-1-[1-(4-fluorophenyl)indazol-5-yl]oxy-propan-2-yl]-2-methoxy-acetamide]	4.2 nM
COc1cccc([C@@H](Oc2ccc3c(cnn3-c3ccc(F)cc3)c2)[C@H](C)NC(=O)c2nc(C)cs2)c1 [Example 290, N-[(1R,2S)-1-[1-(4-fluorophenyl)indazol-5-yl]oxy-1-(3-methoxyphenyl)propan-2-yl]-4-methyl-1,3-thiazole-2-carboxamide]	3.1 nM
COCC(=O)N[C@@H](C)[C@H](Oc1ccc2c(cnn2-c2ccc(F)cc2)c1)c1ccc(F)c(F)c1 [Example 258, N-[(1R,2S)-1-(3,4-difluorophenyl)-1-[1-(4-fluorophenyl)indazol-5-yl]oxy-propan-2-yl]-2-methoxy-acetamide]	4.4 nM
COCC(=O)N[C@@H](C)[C@H](Oc1ccc2c(cnn2-c2ccc(F)cc2)c1)c1ccccc1 [Example 31, N-[(1R,2S)-1-[1-(4-fluorophenyl)indazol-5-yl]oxy-1-phenyl-propan-2-yl]-2-methoxy-acetamide]	2.8 nM
CC(=O)NC(C)C(Oc1cc2cnn(-c3ccc(F)cc3)c2cc1Cl)c1ccc(F)cc1 (racemic) [Example 100, N-[(1RS,2SR)-1-[6-chloro-1-(4-fluorophenyl)indazol-5-yl]oxy-1-(4-fluorophenyl)propan-2-yl]acetamide]	9.2 nM
C[C@H](NC(=O)c1ccco1)[C@H](Oc1ccc2c(cnn2-c2ccncc2)c1)c1ccccc1 [Example 115, N-[(1S,2R)-1-Methyl-2-phenyl-2-{[1-(4-pyridyl)-1H-indazol-5-yl]oxy}ethyl]furan-2-carboxamide]	3.8 nM
Cc1cc(F)ccc1[C@@H](Oc1ccc2c(cnn2-c2ccc(F)cc2)c1)[C@H](C)NC(=O)C(C)(F)F [Example 233, 2,2-difluoro-N-[(1R,2S)-1-(4-fluoro-2-methyl-phenyl)-1-[1-(4-fluorophenyl)indazol-5-yl]oxy-propan-2-yl]propanamide]	6.1 nM
